Structures can show the parent of a compound that is named as a salt. Where two headings read alike, the source gives them in different places.

Data set [1] has as its target T1, OAT1 (Homo sapiens, UniProt Q4U2R8).
T1 sequence (Q4U2R8 1-563): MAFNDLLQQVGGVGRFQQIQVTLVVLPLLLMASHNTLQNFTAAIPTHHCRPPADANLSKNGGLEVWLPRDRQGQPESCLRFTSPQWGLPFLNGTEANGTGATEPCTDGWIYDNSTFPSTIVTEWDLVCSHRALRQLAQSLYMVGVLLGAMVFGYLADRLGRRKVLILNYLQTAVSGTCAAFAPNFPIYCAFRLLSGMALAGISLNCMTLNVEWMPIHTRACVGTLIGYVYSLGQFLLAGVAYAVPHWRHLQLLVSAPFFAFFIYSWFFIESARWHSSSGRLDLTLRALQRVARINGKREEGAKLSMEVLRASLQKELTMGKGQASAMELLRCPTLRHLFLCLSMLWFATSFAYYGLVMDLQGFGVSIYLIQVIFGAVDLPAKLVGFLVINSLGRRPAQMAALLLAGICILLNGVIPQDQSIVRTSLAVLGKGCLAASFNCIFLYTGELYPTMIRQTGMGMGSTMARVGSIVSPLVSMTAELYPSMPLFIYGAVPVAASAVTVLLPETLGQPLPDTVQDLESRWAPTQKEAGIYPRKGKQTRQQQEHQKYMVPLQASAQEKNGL
The data set can be described thus: OAT1-mediated fluorescein uptake inhibition assay in ciPTEC-OAT1. As to conditions: for lowest drug concentration with statistically significant decrease (p<0.05) of % fluorescein uptake, with IS: co-incubation with IS; for lowest drug concentration with statistically significant decrease (p<0.05) of % fluorescein uptake, with IS / lowest drug concentration with statistically significant decrease (p<0.05) of % fluorescein uptake, with KA / lowest drug concentration with statistically significant decrease (p<0.05) of % fluorescein uptake, with PCS: reference = toxin alone; for lowest drug concentration with statistically significant decrease (p<0.05) of % fluorescein uptake, with KA: co-incubation with KA; for lowest drug concentration with statistically significant decrease (p<0.05) of % fluorescein uptake, with PCS: co-incubation with PCS; for IC50 at 10 min: human, ciPTEC-OAT1 mature monolayers, pH 7.4, probe fluorescein 1 µM.

The conditions of data set [2]: cited from earlier work.
Data set [3] is described as follows: Human clearance and half life of tested drugs. Format: in vivo.
In a further data set the test system is plasma proteins. As to conditions: cited from earlier work; for Protein Binding (%): ref www.drugbank.ca; for bound to plasma proteins: PBUTs in plasma, ref 68 (IS, PCS), ref 69 (KA).
For data set [4] the following is noted: cited from earlier work; for T1/2 (pharmacologic half life): ref 44 (pravastatin: ref 45).
Data set [5] deals with T1, OAT1. The following applies: read-out: IC50 of uremic toxin in ciPTEC-OAT1 system; cited from earlier work.
Data set [6] relates to OAT1. As to conditions: read-out: IC50 (uric acid uptake, OAT1); OAT1-expressing Flp-HEK293 cells; ref Sato et al. [58]; cited from earlier work.
Substrate in data set [7]: O=C1OC2(c3ccc(O)cc3Oc3cc(O)ccc32)c2ccccc21
In words: cells, lysate or membranes. The following applies: pH 7.4; 37.0 °C.

[8] abbreviates: co-incubation with UTox, lowest drug concentration.

For the molecule `C[C@H](CS)C(=O)N1CCC[C@H]1C(=O)O` [Captopril, captopril], at OAT1 [1], the IC50 (usually the concentration needed to halve the response being measured) was 2020 ± 465 µM. In addition, in data set [2] (ref 44 (pravastatin: ref 45)), the “Therapeutic Concentrations” value is 0.2 to 5 µM.

`CN/C(=N/CCSCc1nc[nH]c1C)NC#N` [Cimetidine]: in data set [3], the “Renal Clearance (% of Total CL)” value worked out at 97%. Besides, the IC50 against OAT1 [1] stood at 888 ± 198 µM. In addition, in data set [2] (ref 44 (pravastatin: ref 45)), the “Therapeutic Concentrations” value was 1 to 16 µM. Besides, the “Protein Binding (%)” value with plasma proteins is listed as 20%. Also, in data set [4] (human), the “Renal CL” value was 7.9 mL/min/kg. In addition, in data set [4], the “T1/2 (pharmacologic half life)” value is reported as 1.5–4 h.

Regarding `C[C@H](N[C@@H](CCc1ccccc1)C(=O)O)C(=O)N1CCC[C@H]1C(=O)O` [Enalaprilate, enalaprilate], the “Renal Clearance (% of Total CL)” value in data set [3] worked out at 100%. Further, the “inhibition of human OAT1 (in words)” value at OAT1 [1] (captopril and enalaprilate only at high concentrations with no therapeutic relevance) is given as “inhibited”. For the same molecule, in data set [2] (ref 44 (pravastatin: ref 45)), the “Therapeutic Concentrations” value is 0.04 to 0.4 µM. Besides, the “Protein Binding (%)” value in the data set with plasma proteins was 50%. In addition, in data set [4] (human), the “Renal CL” value is 1.6 mL/min/kg and the “Total CL” value is reported as 1.6 mL/min/kg. The “T1/2 (pharmacologic half life)” value in data set [4] is on record as 8–11 h.

Take `NS(=O)(=O)c1cc(C(=O)O)c(NCc2ccco2)cc1Cl` [Furosemide, furosemide]: in data set [2] (ref 44 (pravastatin: ref 45)), the “Therapeutic Concentrations” value was 6 to 30 µM.

Take `O=S(=O)(O)Oc1c[nH]c2ccccc12` [Indoxyl sulfate]: the “bound to plasma proteins” value in the data set on plasma proteins was 90–95%.

As to `O=C(O)[C@H]1O[C@@H](Oc2c[nH]c3ccccc23)[C@H](O)[C@@H](O)[C@@H]1O` [Indoxyl-β-D-glucoronide, indoxyl-β-D-glucoronide], the IC50 at OAT1 [5] is 492 ± 68 µM.

Take `O=C(O)c1cc(=O)c2ccccc2[nH]1` [Kynurenic acid, kynurenic acid]: the “bound to plasma proteins” value in the data set with plasma proteins was 70%.

For `NCCCC[C@H](N[C@@H](CCc1ccccc1)C(=O)O)C(=O)N1CCC[C@H]1C(=O)O` [Lisinopril, lisinopril], the “Renal Clearance (% of Total CL)” value in data set [3] stood at 100%. Besides, the “Therapeutic Concentrations” value in data set [2] (ref 44 (pravastatin: ref 45)) is 0.01 to 0.16 µM. For the same molecule, the “Protein Binding (%)” value in the data set on plasma proteins is “negligible”.

Turning to `CCCCc1nc(Cl)c(CO)n1Cc1ccc(-c2ccccc2-c2nn[nH]n2)cc1` [Losartan, losartan], the “Renal Clearance (% of Total CL)” value in data set [3] came to 11%. Further, on OAT1 [1], half-maximal inhibition (IC50) was put at 8.6 ± 2.5 µM; the “lowest drug concentration with statistically significant decrease (p<0.05) of % fluorescein uptake, with IS” value was 1 µM; the “lowest drug concentration with statistically significant decrease (p<0.05) of % fluorescein uptake, with KA” value is 5 µM; the “lowest drug concentration with statistically significant decrease (p<0.05) of % fluorescein uptake, with PCS” value stood at 1 µM. This molecule came in with an IC50 at 10 min against OAT1 [1] of 3.1 ± 0.7 µM. Also, the “Percentage (%) Fluorescein Uptake at the Lowest Drug Concentration in the presence of UTox” value (“Percentage (%) Fluorescein Uptake” for short) at OAT1 [1] (setting [8]) was 23.5 ± 3.5%. In addition, in data set [2] (ref 44 (pravastatin: ref 45)), the “Therapeutic Concentrations” value is 0.5 to 1.5 µM. Besides, the IC50 in the data set with OAT1 [6] was 12 µM. For the same molecule, the “Protein Binding (%)” value in the data set with plasma proteins was 99%. Also, in data set [4] (human), the “Renal CL” value is 0.9 mL/min/kg. Moreover, the “T1/2 (pharmacologic half life)” value in data set [4] is recorded as 1.5–2 h.

On to `CC[C@H](C)C(=O)O[C@H]1C[C@H](O)C=C2C=C[C@H](C)[C@H](CC[C@@H](O)C[C@@H](O)CC(=O)O)[C@H]21` [Pravastatin, pravastatin], for which, in data set [3], the “Renal Clearance (% of Total CL)” value was determined as 45%. Also, at OAT1 [1], half-maximal inhibition (IC50) required 13.8 ± 8.5 µM; the “lowest drug concentration with statistically significant decrease (p<0.05) of % fluorescein uptake, with IS” value is on record as 5 µM; the “lowest drug concentration with statistically significant decrease (p<0.05) of % fluorescein uptake, with KA” value stood at 5 µM; the “lowest drug concentration with statistically significant decrease (p<0.05) of % fluorescein uptake, with PCS” value stood at 1 µM. This molecule also returned an IC50 at 10 min against OAT1 [1] of 23.2 ± 8.3 µM. The “Percentage (%) Fluorescein Uptake” value on OAT1 [1] (setting [8]) is on record as 27.8 ± 2.6%. The “Therapeutic Concentrations” value in data set [2] (ref 44 (pravastatin: ref 45)) was 0.08 to 0.3 µM. In addition, the “Therapeutic Concentrations” value in data set [2] (second value in cell) is 0.43 µM. The “Protein Binding (%)” value in the data set on plasma proteins is 60%. The “Renal CL” value in data set [4] (human) is 6.3 mL/min/kg. Besides, the “T1/2 (pharmacologic half life)” value in data set [4] is listed as 1–2.5 h.

As to `CCC(C)(C)C(=O)O[C@H]1C[C@@H](C)C=C2C=C[C@H](C)[C@H](CC[C@@H]3C[C@@H](O)CC(=O)O3)[C@H]21` [Simvastatin, simvastatin], the “Renal Clearance (% of Total CL)” value in data set [3] was 13%. Further, the “T1/2 (pharmacologic half life)” value in data set [4] is 2 h.

For `CCCCC(=O)N(Cc1ccc(-c2ccccc2-c2nnn[nH]2)cc1)[C@H](C(=O)O)C(C)C` [Valsartan, valsartan], the “Renal Clearance (% of Total CL)” value in data set [3] was determined as 29%. Besides, the IC50 against OAT1 [1] was 11.5 ± 3.5 µM; in the data set on OAT1 [6], 16 µM. The “Percentage (%) Fluorescein Uptake” value at OAT1 [1] was 24.7 ± 4.5%. Besides, the “Therapeutic Concentrations” value in data set [2] (ref 44 (pravastatin: ref 45)) is 2 to 14 µM. The “Protein Binding (%)” value with plasma proteins was 94–97%. In addition, in data set [4] (human), the “Renal CL” value was 0.14 mL/min/kg. The “T1/2 (pharmacologic half life)” value in data set [4] is recorded as 6–9 h.

Consider `Cc1ccc(O[C@@H]2O[C@H](C(=O)O)[C@@H](O)[C@H](O)[C@H]2O)cc1` [p-Cresylglucuronide, p-cresylglucuronide], for which the IC50 on OAT1 [5] was 2650 ± 922 µM.

`Cc1ccc(OS(=O)(=O)O)cc1` [p-Cresylsulfate, p-cresylsulfate]: the IC50 on OAT1 [5] was 79 ± 14 µM. In addition, the “bound to plasma proteins” value with plasma proteins is reported as 90–95%.

B1: OAT1 (Homo sapiens) (protein)
chain: MAFNDLLQQVGGVGRFQQIQVTLVVLPLLLMASHNTLQNFTAAIPTHHCRPPADANLSKNGGLEVWLPRDRQGQPESCLRFTSPQWGLPFLNGTEANGTGATEPCTDGWIYDNSTFPSTIVTEWDLVCSHRALRQLAQSLYMVGVLLGAMVFGYLADRLGRRKVLILNYLQTAVSGTCAAFAPNFPIYCAFRLLSGMALAGISLNCMTLNVEWMPIHTRACVGTLIGYVYSLGQFLLAGVAYAVPHWRHLQLLVSAPFFAFFIYSWFFIESARWHSSSGRLDLTLRALQRVARINGKREEGAKLSMEVLRASLQKELTMGKGQASAMELLRCPTLRHLFLCLSMLWFATSFAYYGLVMDLQGFGVSIYLIQVIFGAVDLPAKLVGFLVINSLGRRPAQMAALLLAGICILLNGVIPQDQSIVRTSLAVLGKGCLAASFNCIFLYTGELYPTMIRQTGMGMGSTMARVGSIVSPLVSMTAELYPSMPLFIYGAVPVAASAVTVLLPETLGQPLPDTVQDLESRWAPTQKEAGIYPRKGKQTRQQQEHQKYMVPLQASAQEKNGL
For the molecule B1, the Km (commonly the substrate concentration at which the rate is half of its maximum) in data set [7] stood at 0.93 ± 0.09 µM.
